From ChEMBL document CHEMBL4270589, “Novel coumarin-pyrazole carboxamide derivatives as potential topoisomerase II inhibitors: Design, synthesis and antibacterial activity” (Eur J Med Chem, 2018)
Converted amounts (≈) assume the structure as drawn.

Experiments:
Assay type in all cases: functional
Listeria monocytogenes = assay: Antibacterial activity against Listeria monocytogenes ATCC 15313 after 24 hrs by agar dilution method; settings: ATCC 15313, 24 h
Salmonella enterica = assay: Antibacterial activity against Salmonella enterica ATCC 9184 after 24 hrs by agar dilution method; settings: ATCC 9184, 24 h
Staphylococcus aureus = assay: Antibacterial activity against Staphylococcus aureus ATCC 12600 after 24 hrs by agar dilution method; settings: ATCC 12600, 24 h
Escherichia coli = assay: Antibacterial activity against Escherichia coli ATCC 25922 after 24 hrs by agar dilution method; settings: ATCC 25922, 24 h

Compound	MIC (Listeria monocytogenes) [µg/mL]	MIC (Salmonella enterica) [µg/mL]	MIC (Staphylococcus aureus) [µg/mL]	MIC (Escherichia coli) [µg/mL]
CCN(CC)c1ccc2cc(C(=O)Nc3c(C#N)cnn3-c3ccccc3)c(=O)oc2c1	16 (≈ 37.4 µM)	32 (≈ 74.9 µM)	4 (≈ 9.36 µM)	32 (≈ 74.9 µM)
O=C(O)c1cnn(-c2ccccc2)c1NC(=O)c1cc2cc(Cl)ccc2oc1=O	32 (≈ 78.1 µM)	> 128	32 (≈ 78.1 µM)	32 (≈ 78.1 µM)
CCOC(=O)c1cnn(-c2ccccc2)c1NC(=O)c1cc2cc([N+](=O)[O-])ccc2oc1=O	> 128	> 128	> 128	> 128
O=C(O)c1cnn(-c2ccc(F)cc2)c1NC(=O)c1cc2cc(Cl)ccc2oc1=O	32 (≈ 74.8 µM)	> 128	64 (≈ 150 µM)	32 (≈ 74.8 µM)
CCOC(=O)c1cnn(-c2ccc(F)cc2)c1NC(=O)c1cc2ccc(N(CC)CC)cc2oc1=O	> 128	> 128	> 128	> 128
CCOC(=O)c1cnn(-c2ccccc2)c1NC(=O)c1cc2cc(Br)ccc2oc1=O	16 (≈ 33.2 µM)	64 (≈ 133 µM)	16 (≈ 33.2 µM)	16 (≈ 33.2 µM)
O=C(O)c1cnn(-c2ccccc2)c1NC(=O)c1cc2cc(Br)ccc2oc1=O	> 128	> 128	> 128	> 128
Cc1ccc(-n2ncc(C(=O)O)c2NC(=O)c2cc3cc(Cl)ccc3oc2=O)cc1	16 (≈ 37.8 µM)	> 128	> 128	> 128
Cc1ccc(-n2ncc(C#N)c2NC(=O)c2cc3cc(Cl)ccc3oc2=O)cc1	> 128	> 128	> 128	> 128
O=C(O)c1cnn(-c2ccc(Cl)cc2)c1NC(=O)c1cc2ccccc2oc1=O	32 (≈ 78.1 µM)	32 (≈ 78.1 µM)	32 (≈ 78.1 µM)	64 (≈ 156 µM)
N#Cc1cnn(-c2ccc(Cl)cc2)c1NC(=O)c1cc2cc(Cl)ccc2oc1=O	8 (≈ 18.8 µM)	64 (≈ 151 µM)	4 (≈ 9.41 µM)	4 (≈ 9.41 µM)
N#Cc1cnn(-c2ccc(Cl)cc2)c1NC(=O)c1cc2ccccc2oc1=O	32 (≈ 81.9 µM)	16 (≈ 40.9 µM)	4 (≈ 10.2 µM)	32 (≈ 81.9 µM)
CCOC(=O)c1cnn(-c2ccc(C)cc2)c1NC(=O)c1cc2cc(Br)ccc2oc1=O	2 (≈ 4.03 µM)	2 (≈ 4.03 µM)	32 (≈ 64.5 µM)	32 (≈ 64.5 µM)
CCN(CC)c1ccc2cc(C(=O)Nc3c(C(=O)O)cnn3-c3ccc(F)cc3)c(=O)oc2c1	16 (≈ 34.4 µM)	16 (≈ 34.4 µM)	32 (≈ 68.9 µM)	32 (≈ 68.9 µM)
O=C(O)c1cnn(-c2ccc(F)cc2)c1NC(=O)c1cc2ccccc2oc1=O	> 128	> 128	> 128	> 128
N#Cc1cnn(-c2ccc(F)cc2)c1NC(=O)c1cc2ccccc2oc1=O	64 (≈ 171 µM)	> 128	> 128	> 128
Cc1ccc(-n2ncc(C#N)c2NC(=O)c2cc3cc([N+](=O)[O-])ccc3oc2=O)cc1	> 128	> 128	> 128	> 128
Cc1ccc(-n2ncc(C(=O)O)c2NC(=O)c2cc3cc(Br)ccc3oc2=O)cc1	> 128	> 128	64 (≈ 137 µM)	64 (≈ 137 µM)
Cc1ccc2oc(=O)c(C(=O)Nc3c(C#N)cnn3-c3ccc(F)cc3)cc2c1	> 128	> 128	> 128	> 128
CCOC(=O)c1cnn(-c2ccc(C)cc2)c1NC(=O)c1cc2ccccc2oc1=O	32 (≈ 76.7 µM)	> 128	> 128	> 128
Cc1ccc2oc(=O)c(C(=O)Nc3c(C#N)cnn3-c3ccc(Cl)cc3)cc2c1	16 (≈ 39.5 µM)	2 (≈ 4.94 µM)	2 (≈ 4.94 µM)	4 (≈ 9.88 µM)
CCOC(=O)c1cnn(-c2ccccc2)c1NC(=O)c1cc2cc(C)ccc2oc1=O	32 (≈ 76.7 µM)	16 (≈ 38.3 µM)	32 (≈ 76.7 µM)	16 (≈ 38.3 µM)

Compound	MIC (Listeria monocytogenes) [µg/mL]	MIC (Salmonella enterica) [µg/mL]	MIC (Staphylococcus aureus) [µg/mL]	MIC (Escherichia coli) [µg/mL]
Cc1ccc(-n2ncc(C(=O)O)c2NC(=O)c2cc3ccccc3oc2=O)cc1	> 128	> 128	64 (≈ 164 µM)	64 (≈ 164 µM)
CCOC(=O)c1cnn(-c2ccccc2)c1NC(=O)c1cc2ccc(N(CC)CC)cc2oc1=O	64 (≈ 135 µM)	64 (≈ 135 µM)	64 (≈ 135 µM)	64 (≈ 135 µM)
O=C(O)c1cnn(-c2ccccc2)c1NC(=O)c1cc2ccccc2oc1=O	32 (≈ 85.3 µM)	> 128	> 128	> 128
O=C(O)c1cnn(-c2ccc(F)cc2)c1NC(=O)c1cc2cc(Br)ccc2oc1=O	32 (≈ 67.8 µM)	32 (≈ 67.8 µM)	> 128	4 (≈ 8.47 µM)
Cc1ccc(-n2ncc(C(=O)O)c2NC(=O)c2cc3cc(C)ccc3oc2=O)cc1	> 128	> 128	32 (≈ 79.3 µM)	64 (≈ 159 µM)
Cc1ccc(-n2ncc(C#N)c2NC(=O)c2cc3ccccc3oc2=O)cc1	> 128	> 128	8 (≈ 21.6 µM)	32 (≈ 86.4 µM)
CCOC(=O)c1cnn(-c2ccc(F)cc2)c1NC(=O)c1cc2cc(Cl)ccc2oc1=O	> 128	64 (≈ 140 µM)	> 128	64 (≈ 140 µM)
O=C(O)c1cnn(-c2ccc(F)cc2)c1NC(=O)c1cc2cc([N+](=O)[O-])ccc2oc1=O	> 128	> 128	> 128	> 128
N#Cc1cnn(-c2ccccc2)c1NC(=O)c1cc2ccccc2oc1=O	64 (≈ 180 µM)	32 (≈ 89.8 µM)	16 (≈ 44.9 µM)	64 (≈ 180 µM)
N#Cc1cnn(-c2ccc(F)cc2)c1NC(=O)c1cc2cc([N+](=O)[O-])ccc2oc1=O	> 128	> 128	> 128	> 128
CCOC(=O)c1cnn(-c2ccccc2)c1NC(=O)c1cc2ccccc2oc1=O	64 (≈ 159 µM)	2 (≈ 4.96 µM)	16 (≈ 39.7 µM)	64 (≈ 159 µM)
CCOC(=O)c1cnn(-c2ccc(F)cc2)c1NC(=O)c1cc2cc(Br)ccc2oc1=O	> 128	> 128	64 (≈ 128 µM)	4 (≈ 8 µM)
Cc1ccc2oc(=O)c(C(=O)Nc3c(C(=O)O)cnn3-c3ccccc3)cc2c1	32 (≈ 82.2 µM)	32 (≈ 82.2 µM)	64 (≈ 164 µM)	32 (≈ 82.2 µM)
N#Cc1cnn(-c2ccc(F)cc2)c1NC(=O)c1cc2cc(Br)ccc2oc1=O	64 (≈ 141 µM)	> 128	2 (≈ 4.41 µM)	64 (≈ 141 µM)
CCOC(=O)c1cnn(-c2ccc(Cl)cc2)c1NC(=O)c1cc2cc(C)ccc2oc1=O	16 (≈ 35.4 µM)	8 (≈ 17.7 µM)	8 (≈ 17.7 µM)	4 (≈ 8.85 µM)
N#Cc1cnn(-c2ccc(F)cc2)c1NC(=O)c1cc2cc(Cl)ccc2oc1=O	32 (≈ 78.3 µM)	64 (≈ 157 µM)	32 (≈ 78.3 µM)	32 (≈ 78.3 µM)
CCN(CC)c1ccc2cc(C(=O)Nc3c(C(=O)O)cnn3-c3ccc(C)cc3)c(=O)oc2c1	64 (≈ 139 µM)	64 (≈ 139 µM)	64 (≈ 139 µM)	64 (≈ 139 µM)
Cc1ccc2oc(=O)c(C(=O)Nc3c(C(=O)O)cnn3-c3ccc(Cl)cc3)cc2c1	16 (≈ 37.8 µM)	16 (≈ 37.8 µM)	16 (≈ 37.8 µM)	8 (≈ 18.9 µM)
CCOC(=O)c1cnn(-c2ccc(C)cc2)c1NC(=O)c1cc2cc([N+](=O)[O-])ccc2oc1=O	> 128	> 128	> 128	> 128
CCOC(=O)c1cnn(-c2ccc(C)cc2)c1NC(=O)c1cc2cc(Cl)ccc2oc1=O	2 (≈ 4.43 µM)	> 128	4 (≈ 8.85 µM)	64 (≈ 142 µM)
CCOC(=O)c1cnn(-c2ccc(Cl)cc2)c1NC(=O)c1cc2ccccc2oc1=O	64 (≈ 146 µM)	16 (≈ 36.5 µM)	16 (≈ 36.5 µM)	64 (≈ 146 µM)
